{"source": "PubChem BioAssay AID1259407", "about": "(Chemical Carcinogenesis Research Information System (CCRIS), 2018)", "system": "CCRIS mutagenicity, Ames/micronucleus/aberration tests", "assay": "CCRIS mutagenicity studies", "key": {"[1]": {"conditions": "Test System: AMES SALMONELLA TYPHIMURIUM, Strain/Indicator: TA98, Metabolic Activation: NONE, Method: STANDARD PLATE"}, "[2]": {"conditions": "Test System: AMES SALMONELLA TYPHIMURIUM, Strain/Indicator: TA100, Metabolic Activation: NONE, Method: STANDARD PLATE"}, "[3]": {"conditions": "Test System: AMES SALMONELLA TYPHIMURIUM, Strain/Indicator: TA102, Metabolic Activation: NONE, Method: STANDARD PLATE"}}, "note": "Active and inactive are the calls of the source. No rule for the calls is given here."}
{"smiles": "C=CC(C)(C)c1cc2cc3c(cc2oc1=O)OC(C(C)(C)O)C3", "note": "(stereo not drawn)", "values": [{"measurement": "mutagenic call", "setting": "Test System: AMES SALMONELLA TYPHIMURIUM, Strain/Indicator: TA92, Metabolic Activation: NONE, Method: SPOT TEST", "value": "inactive; negative"}, {"measurement": "mutagenic call", "setting": "Test System: AMES SALMONELLA TYPHIMURIUM, Strain/Indicator: TA92, Metabolic Activation: RAT, LIVER, S-9, AROCLOR 1254, Method: SPOT TEST", "value": "inactive; negative"}, {"measurement": "mutagenic call", "setting": "Test System: AMES SALMONELLA TYPHIMURIUM, Strain/Indicator: TA94, Metabolic Activation: NONE, Method: SPOT TEST", "value": "inactive; negative"}, {"measurement": "mutagenic call", "setting": "Test System: AMES SALMONELLA TYPHIMURIUM, Strain/Indicator: TA94, Metabolic Activation: RAT, LIVER, S-9, AROCLOR 1254, Method: SPOT TEST", "value": "inactive; negative"}, {"measurement": "mutagenic call", "setting": "Test System: AMES SALMONELLA TYPHIMURIUM, Strain/Indicator: TA97, Metabolic Activation: NONE, Method: SPOT TEST", "value": "active; positive"}, {"measurement": "mutagenic call", "setting": "Test System: AMES SALMONELLA TYPHIMURIUM, Strain/Indicator: TA97, Metabolic Activation: RAT, LIVER, S-9, AROCLOR 1254, Method: SPOT TEST", "value": "inactive; negative"}, {"measurement": "mutagenic call", "setting": "Test System: AMES SALMONELLA TYPHIMURIUM, Strain/Indicator: TA98, Metabolic Activation: NONE, Method: SPOT TEST", "value": "active; positive"}, {"measurement": "mutagenic call", "setting": "Test System: AMES SALMONELLA TYPHIMURIUM, Strain/Indicator: TA98, Metabolic Activation: RAT, LIVER, S-9, AROCLOR 1254, Method: SPOT TEST", "value": "inactive; negative"}, {"measurement": "mutagenic call", "setting": "Test System: AMES SALMONELLA TYPHIMURIUM, Strain/Indicator: TA100, Metabolic Activation: NONE, Method: SPOT TEST", "value": "active; positive"}, {"measurement": "mutagenic call", "setting": "Test System: AMES SALMONELLA TYPHIMURIUM, Strain/Indicator: TA100, Metabolic Activation: RAT, LIVER, S-9, AROCLOR 1254, Method: SPOT TEST", "value": "inactive; negative"}, {"measurement": "mutagenic call", "setting": "Test System: AMES SALMONELLA TYPHIMURIUM, Strain/Indicator: TA102, Metabolic Activation: NONE, Method: SPOT TEST", "value": "inactive; negative"}, {"measurement": "mutagenic call", "setting": "Test System: AMES SALMONELLA TYPHIMURIUM, Strain/Indicator: TA102, Metabolic Activation: RAT, LIVER, S-9, AROCLOR 1254, Method: SPOT TEST", "value": "inactive; negative"}]}
{"smiles": "CCC(CCCC(=O)O)COC(=O)c1ccccc1C(=O)O", "note": "(stereo not drawn)", "values": [{"measurement": "mutagenic call", "setting": "Test System: AMES SALMONELLA TYPHIMURIUM, Strain/Indicator: TA97, Metabolic Activation: NONE, Method: STANDARD PLATE", "value": "inactive; negative"}, {"measurement": "mutagenic call", "setting": "Test System: AMES SALMONELLA TYPHIMURIUM, Strain/Indicator: TA97, Metabolic Activation: RAT, LIVER, S-9, AROCLOR 1254, Method: STANDARD PLATE", "value": "inactive; negative"}, {"measurement": "mutagenic call", "setting": "Test System: AMES SALMONELLA TYPHIMURIUM, Strain/Indicator: TA97, Metabolic Activation: RAT, LIVER, S-9, DI(2-ETHYLHEXYL)PHTHALATE, Method: STANDARD PLATE", "value": "inactive; negative"}, {"measurement": "mutagenic call", "setting": "[1]", "value": "inactive; negative"}, {"measurement": "mutagenic call", "setting": "Test System: AMES SALMONELLA TYPHIMURIUM, Strain/Indicator: TA98, Metabolic Activation: RAT, LIVER, S-9, AROCLOR 1254, Method: STANDARD PLATE", "value": "inactive; negative"}, {"measurement": "mutagenic call", "setting": "Test System: AMES SALMONELLA TYPHIMURIUM, Strain/Indicator: TA98, Metabolic Activation: RAT, LIVER, S-9, DI(2-ETHYLHEXYL)PHTHALATE, Method: STANDARD PLATE", "value": "inactive; negative"}, {"measurement": "mutagenic call", "setting": "[2]", "value": "inactive; negative"}, {"measurement": "mutagenic call", "setting": "Test System: AMES SALMONELLA TYPHIMURIUM, Strain/Indicator: TA100, Metabolic Activation: RAT, LIVER, S-9, AROCLOR 1254, Method: STANDARD PLATE", "value": "inactive; negative"}, {"measurement": "mutagenic call", "setting": "Test System: AMES SALMONELLA TYPHIMURIUM, Strain/Indicator: TA100, Metabolic Activation: RAT, LIVER, S-9, DI(2-ETHYLHEXYL)PHTHALATE, Method: STANDARD PLATE", "value": "inactive; negative"}, {"measurement": "mutagenic call", "setting": "[3]", "value": "inactive; negative"}, {"measurement": "mutagenic call", "setting": "Test System: AMES SALMONELLA TYPHIMURIUM, Strain/Indicator: TA102, Metabolic Activation: RAT, LIVER, S-9, AROCLOR 1254, Method: STANDARD PLATE", "value": "inactive; negative"}, {"measurement": "mutagenic call", "setting": "Test System: AMES SALMONELLA TYPHIMURIUM, Strain/Indicator: TA102, Metabolic Activation: RAT, LIVER, S-9, DI(2-ETHYLHEXYL)PHTHALATE, Method: STANDARD PLATE", "value": "inactive; negative"}]}
{"smiles": "C", "values": [{"measurement": "mutagenic call", "setting": "End Point: In vitro chromosomal aberrations, Test System: Chinese hamster V79 lung fibroblast cells, Metabolic Activation: Rat, Liver, S9, Aroclor 1254", "value": "inactive; negative. material tested was baytubes, multi-walled carbon-nanotubes."}, {"measurement": "mutagenic call", "setting": "Test System: Ames Salmonella typhimurium, Strain/Indicator: TA98, Metabolic Activation: None, Method: Preincubation", "value": "inactive; negative. material tested was baytubes, multi-walled carbon-nanotubes."}, {"measurement": "mutagenic call", "setting": "Test System: Ames Salmonella typhimurium, Strain/Indicator: TA98, Metabolic Activation: Rat, Liver, S9, Aroclor 1254, Method: Preincubation", "value": "inactive; negative. material tested was baytubes, multi-walled carbon-nanotubes."}, {"measurement": "mutagenic call", "setting": "Test System: Ames Salmonella typhimurium, Strain/Indicator: TA100, Metabolic Activation: None, Method: Preincubation", "value": "inactive; negative. material tested was baytubes, multi-walled carbon-nanotubes."}, {"measurement": "mutagenic call", "setting": "Test System: Ames Salmonella typhimurium, Strain/Indicator: TA100, Metabolic Activation: Rat, Liver, S9, Aroclor 1254, Method: Preincubation", "value": "inactive; negative. material tested was baytubes, multi-walled carbon-nanotubes."}, {"measurement": "mutagenic call", "setting": "Test System: Ames Salmonella typhimurium, Strain/Indicator: TA102, Metabolic Activation: None, Method: Preincubation", "value": "inactive; negative. material tested was baytubes, multi-walled carbon-nanotubes."}, {"measurement": "mutagenic call", "setting": "Test System: Ames Salmonella typhimurium, Strain/Indicator: TA102, Metabolic Activation: Rat, Liver, S9, Aroclor 1254, Method: Preincubation", "value": "inactive; negative. material tested was baytubes, multi-walled carbon-nanotubes."}, {"measurement": "mutagenic call", "setting": "Test System: Ames Salmonella typhimurium, Strain/Indicator: TA1535, Metabolic Activation: None, Method: Preincubation", "value": "inactive; negative. material tested was baytubes, multi-walled carbon-nanotubes."}, {"measurement": "mutagenic call", "setting": "Test System: Ames Salmonella typhimurium, Strain/Indicator: TA1535, Metabolic Activation: Rat, Liver, S9, Aroclor 1254, Method: Preincubation", "value": "inactive; negative. material tested was baytubes, multi-walled carbon-nanotubes."}, {"measurement": "mutagenic call", "setting": "Test System: Ames Salmonella typhimurium, Strain/Indicator: TA1537, Metabolic Activation: None, Method: Preincubation", "value": "inactive; negative. material tested was baytubes, multi-walled carbon-nanotubes."}, {"measurement": "mutagenic call", "setting": "Test System: Ames Salmonella typhimurium, Strain/Indicator: TA1537, Metabolic Activation: Rat, Liver, S9, Aroclor 1254, Method: Preincubation", "value": "inactive; negative. material tested was baytubes, multi-walled carbon-nanotubes."}]}
{"smiles": "Cc1c(N(C)CS(=O)(=O)O)c(=O)n(-c2ccccc2)n1C", "values": [{"measurement": "mutagenic call", "setting": "Test System: AMES SALMONELLA TYPHIMURIUM, Strain/Indicator: TA97A, Metabolic Activation: NONE, Method: STANDARD PLATE", "value": "inactive; negative"}, {"measurement": "mutagenic call", "setting": "Test System: AMES SALMONELLA TYPHIMURIUM, Strain/Indicator: TA97A, Metabolic Activation: RAT LIVER S-9, PHENOBARBITAL, Method: STANDARD PLATE", "value": "active; positive"}, {"measurement": "mutagenic call", "setting": "Test System: AMES SALMONELLA TYPHIMURIUM, Strain/Indicator: TA98, Metabolic Activation: GUINEA PIG, LIVER, S-9, PCB, Method: PREINCUBATION", "value": "inactive; negative"}, {"measurement": "mutagenic call", "setting": "Test System: AMES SALMONELLA TYPHIMURIUM, Strain/Indicator: TA98, Metabolic Activation: HAMSTER, LIVER, S-9, PCB, Method: PREINCUBATION", "value": "inactive; negative"}, {"measurement": "mutagenic call", "setting": "Test System: AMES SALMONELLA TYPHIMURIUM, Strain/Indicator: TA98, Metabolic Activation: MOUSE, LIVER, S-9, PCB, Method: PREINCUBATION", "value": "inactive; negative"}, {"measurement": "mutagenic call", "setting": "[1]", "value": "inactive; negative"}, {"measurement": "mutagenic call", "setting": "Test System: AMES SALMONELLA TYPHIMURIUM, Strain/Indicator: TA98, Metabolic Activation: RAT LIVER S-9, PHENOBARBITAL, Method: STANDARD PLATE", "value": "active; positive"}, {"measurement": "mutagenic call", "setting": "Test System: AMES SALMONELLA TYPHIMURIUM, Strain/Indicator: TA98, Metabolic Activation: RAT, LIVER, S-9, PCB, Method: PREINCUBATION", "value": "inactive; negative"}, {"measurement": "mutagenic call", "setting": "Test System: AMES SALMONELLA TYPHIMURIUM, Strain/Indicator: TA100, Metabolic Activation: GUINEA PIG, LIVER, S-9, PCB, Method: PREINCUBATION", "value": "inactive; negative"}, {"measurement": "mutagenic call", "setting": "Test System: AMES SALMONELLA TYPHIMURIUM, Strain/Indicator: TA100, Metabolic Activation: HAMSTER, LIVER, S-9, PCB, Method: PREINCUBATION", "value": "inactive; negative"}, {"measurement": "mutagenic call", "setting": "Test System: AMES SALMONELLA TYPHIMURIUM, Strain/Indicator: TA100, Metabolic Activation: MOUSE, LIVER, S-9, PCB, Method: PREINCUBATION", "value": "inactive; negative"}, {"measurement": "mutagenic call", "setting": "[2]", "value": "inactive; negative"}, {"measurement": "mutagenic call", "setting": "Test System: AMES SALMONELLA TYPHIMURIUM, Strain/Indicator: TA100, Metabolic Activation: RAT LIVER S-9, PHENOBARBITAL, Method: STANDARD PLATE", "value": "inactive; negative"}, {"measurement": "mutagenic call", "setting": "Test System: AMES SALMONELLA TYPHIMURIUM, Strain/Indicator: TA100, Metabolic Activation: RAT, LIVER, S-9, AROCLOR 1254, Method: PREINCUBATION", "value": "active; positive"}, {"measurement": "mutagenic call", "setting": "Test System: AMES SALMONELLA TYPHIMURIUM, Strain/Indicator: TA100, Metabolic Activation: RAT, LIVER, S-9, PCB, Method: PREINCUBATION", "value": "active; positive"}, {"measurement": "mutagenic call", "setting": "[3]", "value": "inactive; negative"}, {"measurement": "mutagenic call", "setting": "Test System: AMES SALMONELLA TYPHIMURIUM, Strain/Indicator: TA102, Metabolic Activation: RAT LIVER S-9, PHENOBARBITAL, Method: STANDARD PLATE", "value": "inactive; negative"}]}
{"smiles": "c1cc2c3c(c4c(ccc5ccccc54)cc3c1)C1=C2O1", "values": [{"measurement": "mutagenic call", "setting": "Test System: CHINESE HAMSTER V-79, Strain/Indicator: V-79/6-THIOGUANINE, Metabolic Activation: NONE, Method: SUSPENSION/PLATE", "value": "active; positive"}]}
